Source: patent publication US11654159B2, “Therapeutic use of electroacupuncture-induced mesenchymal stem cells” (UNIVERSITY OF FLORIDA RESEARCH FOUNDATION, INC., priority 2016, dated 2023)

Experiments:
[1] = test system: MSCs (Lin− CD90+CD44hi cells); test: Pharmacological disinhibition of the dorsomedial regions of the tuberal hypothalamus: blood cells by flow cytometry; assay type: in vivo, rat; details: rats
Protocol: Adult male Sprague-Dawley rats (300-350 g; Harlan Laboratories, Indianapolis, Ind.), were housed in plastic cages under standard environmental conditions (22° C.; 12/12 light/dark cycle; lights on at 7:00 A.M.) for 7-10 days prior to the surgical manipulations. Food and water were provided ad libitum. All experiments were conducted in accordance with the Guide for the Care and Use of Laboratory Animals, 8th Edition (Institute for Laboratory Animal Research, The National Academies Press, Washington, D.C., 2011) and the guidelines of the IUPUI Institutional Animal Care and Use Committee.
Once rats were anesthetized with an isoflurane system (MGX Research Machine; Vetamic, Rossville, Ind.), they were placed in a small animal stereotaxic frame (Model 963 Ultra Precise Frame, Kopf, Tujunga, Calif.). […]

[2] = test system: rat MSCs (Lin− CD90+CD44hi cells); details: rats
Protocol: (§1) Sprague-Dawley rats were injected with epinephrine (SO, El Monte, Ca) intraperitoneally at 50 μg/kg. Uninjected rats were used as baseline controls. Rats were euthanized at 2, 4, and 6 hours post injection. Blood was collected and processed for flow cytometry as described below. A separate cohort of rats was injected IP with 50 mg/kg dopamine for 4 days consecutively. After last injection, rats were euthanized at 2 and 4 hours post injection. Blood was collected and processed for flow cytometry as described below.
PBMCs were isolated using lympholyte M (Cedarlene, Ontario, Canada) density gradient separation and centrifuged at room temperature at 740×g for 30 minutes.
PBMCs were stained with the MPFC protocols in real-time within 24 h after blood collection at the Angio BioCore, IUPUI, for the identification of MSCs as previously described.^50-53 23 PBMCs were incubated with Fc blocking reagent (Miltenyi Biotec or BD biosciences) for 10 minutes on ice and stained as published^50. Cells were incubated with titrated antibodies for 30 minutes at 4° C., washed twice in PBS with 2% FBS, fixed in 1% paraformaldehyde (Tousimis, Rockville, Md.), and run on a BD LSRII flow cytometer (BD) equipped with a 405 nm violet laser, 488 nm blue laser and 633 nm red laser. Data were acquired uncompensated and exported as FCS 3.0 files, and analyzed utilizing FlowJo software, version 9.7.5 or version X (Tree Star, Inc, Ashland, Oreg.). “Fluorescent minus one” (FMO) gating controls were used to ensure proper gating of positive events^50,52,54. In order to resolve the rare and/or dim populations of interest, specific antigen and fluorochrome conjugate coupling was optimized for the six-antibody plus a viability marker staining panel^50-54. BD compBeads (BD Biosciences) were used for color compensations.
Rat MSC were gated sequentially on FMO gates for LIVE/DEAD^−CD45^−erythroid cells^−CD31^−CD11b^− CD90^+CD44H^+ cells.

plasma NE = details: rats
Protocol: as §1
NE levels were measured in EA-treated horses using NE ELISA kit (ALPCO™, Salem, N.H.) according to the manufacturer's instructions. Plasma NE, Epi and DA levels were measured in EA treated rats using the TriCAT ELISA kit (ALPCO™).

MSCs = test: Propranolol pretreatment before EA: MSC mobilization; assay type: in vivo, mice
Description: Blood was collected and processed for flow cytometry as described below.

Question: C[N+]1(C)CCc2cc3c(cc2[C@H]1[C@@H]1OC(=O)c2c1ccc1c2OCO1)OCO3.[I-] [bicuculline methiodide] was tested. Which “total number of cells in the blood” value ([1]; 30 pmol into tuberal hypothalamus, p=0.412) did it give?
Answer: did not alter

Question: What about the “percentage of MSCs (Lin− CD90+CD44hi cells)” value ([1]; highest dose 50 pmol, 4 hours post injection, p=0.027) of the same compound?
Answer: did increase

Question: What does the source list for NCCc1ccc(O)c(O)c1 [dopamine]?
Answer: time of increase in circulating MSCs ([2]; dopamine IP): 2 h; NE levels (plasma NE; dopamine 50 mg/kg for 4 consecutive days): pointed increase; time of peak in plasma NE concentration post administration (plasma NE; dopamine IP): 2 h

Question: With CNC[C@H](O)c1ccc(O)c(O)c1 [epinephrine] as the compound, how does the “MSCs in peripheral blood” value ([2]; epinephrine 50 μg/kg intraperitoneally, vs uninjected baseline, p=0.0125) read?
Answer: significant elevation

Question: What about the “time of increase of rat MSCs in the circulation” value ([2]; epinephrine IP) of the same compound?
Answer: 6 h

Question: What does the source list for CC(C)NCC(O)COc1cccc2ccccc12 (stereo not drawn) [propranolol]?
Answer: mobilization of MSCs by EA (MSCs; mice pretreated for 24 hours prior to EA, p<0.01): prevented; MSC mobilization by EA (MSCs; pretreatment, at 4 hours, compared to untreated animals, p=0.01): inhibited
